Test results: PMC4685510, “A Cell Biologist’s Field Guide to Aurora Kinase Inhibitors” (Frontiers in Oncology, 2015)

How the values were obtained:
Assay in all cases: biochemical
Type in all cases: biochemical
[1] = biological target: T1, 363 human kinases (including Aurora A/B/C) (Homo sapiens, UniProt Q6VAB6); details: KSR2; for remaining activity at 0.1 µM: 100 nM; for remaining activity at 0.1 µM / remaining activity at 0.5 µM: read-out: % Enzyme Activity (relative to DMSO controls)
T1 sequence (Q6VAB6 1-950): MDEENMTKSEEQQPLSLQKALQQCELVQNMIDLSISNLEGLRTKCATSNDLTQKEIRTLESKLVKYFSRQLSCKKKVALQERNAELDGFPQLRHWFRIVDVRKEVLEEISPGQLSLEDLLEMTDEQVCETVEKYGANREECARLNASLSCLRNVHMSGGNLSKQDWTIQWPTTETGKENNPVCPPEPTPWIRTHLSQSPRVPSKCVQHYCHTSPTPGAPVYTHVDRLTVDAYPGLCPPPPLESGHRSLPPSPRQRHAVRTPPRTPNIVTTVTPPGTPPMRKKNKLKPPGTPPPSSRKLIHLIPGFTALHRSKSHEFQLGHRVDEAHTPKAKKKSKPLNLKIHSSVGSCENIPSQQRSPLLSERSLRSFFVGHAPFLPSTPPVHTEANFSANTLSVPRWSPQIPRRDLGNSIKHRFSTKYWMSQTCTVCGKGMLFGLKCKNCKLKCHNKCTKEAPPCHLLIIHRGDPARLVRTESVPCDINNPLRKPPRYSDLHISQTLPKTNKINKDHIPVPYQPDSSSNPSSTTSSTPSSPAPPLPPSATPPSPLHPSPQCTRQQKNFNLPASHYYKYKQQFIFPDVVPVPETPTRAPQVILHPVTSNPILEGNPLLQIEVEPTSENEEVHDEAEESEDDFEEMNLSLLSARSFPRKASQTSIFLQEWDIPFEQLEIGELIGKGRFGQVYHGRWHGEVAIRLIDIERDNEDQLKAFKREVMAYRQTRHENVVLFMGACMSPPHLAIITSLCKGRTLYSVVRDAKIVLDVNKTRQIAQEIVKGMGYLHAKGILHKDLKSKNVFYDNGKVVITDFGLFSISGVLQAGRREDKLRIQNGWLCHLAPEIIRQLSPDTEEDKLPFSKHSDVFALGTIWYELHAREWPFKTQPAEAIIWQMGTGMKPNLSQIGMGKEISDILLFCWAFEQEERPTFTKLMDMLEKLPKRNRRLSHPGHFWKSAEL
From the text: (§1) However, the Aurora A/B selectivity ratios derived from our in vitro and in vivo data can be compared to prioritize inhibitors.

[2] = biological target: 363 human kinases (including Aurora A/B/C) (Homo sapiens, UniProt Q9BXA6); details: SSTK/TSSK6; for remaining activity at 0.1 µM: 100 nM; for remaining activity at 0.1 µM / remaining activity at 0.5 µM: read-out: % Enzyme Activity (relative to DMSO controls)
From the text: as §1

[3] = biological target: 363 human kinases (including Aurora A/B/C) (Homo sapiens, UniProt Q9Y2K2); details: SIK3; for remaining activity at 0.1 µM: 100 nM; for remaining activity at 0.1 µM / remaining activity at 0.5 µM: read-out: % Enzyme Activity (relative to DMSO controls)
From the text: as §1

[4] = biological target: T2, 363 human kinases (including Aurora A/B/C) (Homo sapiens, UniProt P46734); details: MEK3; for remaining activity at 0.1 µM: 100 nM; for remaining activity at 0.1 µM / remaining activity at 0.5 µM: read-out: % Enzyme Activity (relative to DMSO controls)
T2 sequence (P46734 1-347): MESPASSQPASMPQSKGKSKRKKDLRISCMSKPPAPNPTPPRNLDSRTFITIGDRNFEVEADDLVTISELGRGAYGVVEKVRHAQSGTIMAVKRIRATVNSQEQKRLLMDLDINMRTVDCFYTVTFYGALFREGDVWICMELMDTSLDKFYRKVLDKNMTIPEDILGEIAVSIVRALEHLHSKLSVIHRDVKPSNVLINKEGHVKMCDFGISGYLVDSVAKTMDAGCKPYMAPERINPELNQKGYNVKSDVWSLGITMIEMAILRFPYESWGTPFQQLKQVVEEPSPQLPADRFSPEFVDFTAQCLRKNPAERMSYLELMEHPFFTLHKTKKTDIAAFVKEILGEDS
From the text: as §1

[5] = biological target: T3, 363 human kinases (including Aurora A/B/C) (Homo sapiens, UniProt P53778); details: P38g; for remaining activity at 0.1 µM: 100 nM; for remaining activity at 0.1 µM / remaining activity at 0.5 µM: read-out: % Enzyme Activity (relative to DMSO controls)
T3 sequence (P53778 1-367): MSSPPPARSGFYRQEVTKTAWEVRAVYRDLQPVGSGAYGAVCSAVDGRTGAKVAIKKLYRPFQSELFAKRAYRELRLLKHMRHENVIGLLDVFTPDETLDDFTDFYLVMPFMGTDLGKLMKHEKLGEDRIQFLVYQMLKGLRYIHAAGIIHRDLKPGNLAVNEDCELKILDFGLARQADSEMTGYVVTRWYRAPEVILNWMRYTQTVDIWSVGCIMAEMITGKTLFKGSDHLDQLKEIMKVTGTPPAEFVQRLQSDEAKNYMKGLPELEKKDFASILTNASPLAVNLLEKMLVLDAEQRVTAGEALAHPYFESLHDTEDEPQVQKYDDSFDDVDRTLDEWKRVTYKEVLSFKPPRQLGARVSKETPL
From the text: as §1

[6] = biological target: 363 human kinases (including Aurora A/B/C) (Homo sapiens, UniProt Q9H1R3); details: MLCK2/MYLK2; for remaining activity at 0.1 µM: 100 nM; for remaining activity at 0.1 µM / remaining activity at 0.5 µM: read-out: % Enzyme Activity (relative to DMSO controls)
From the text: as §1

[7] = biological target: T4, 363 human kinases (including Aurora A/B/C) (Homo sapiens, UniProt P51956); details: NEK3; for remaining activity at 0.1 µM: 100 nM; for remaining activity at 0.1 µM / remaining activity at 0.5 µM: read-out: % Enzyme Activity (relative to DMSO controls)
T4 sequence (P51956 1-506): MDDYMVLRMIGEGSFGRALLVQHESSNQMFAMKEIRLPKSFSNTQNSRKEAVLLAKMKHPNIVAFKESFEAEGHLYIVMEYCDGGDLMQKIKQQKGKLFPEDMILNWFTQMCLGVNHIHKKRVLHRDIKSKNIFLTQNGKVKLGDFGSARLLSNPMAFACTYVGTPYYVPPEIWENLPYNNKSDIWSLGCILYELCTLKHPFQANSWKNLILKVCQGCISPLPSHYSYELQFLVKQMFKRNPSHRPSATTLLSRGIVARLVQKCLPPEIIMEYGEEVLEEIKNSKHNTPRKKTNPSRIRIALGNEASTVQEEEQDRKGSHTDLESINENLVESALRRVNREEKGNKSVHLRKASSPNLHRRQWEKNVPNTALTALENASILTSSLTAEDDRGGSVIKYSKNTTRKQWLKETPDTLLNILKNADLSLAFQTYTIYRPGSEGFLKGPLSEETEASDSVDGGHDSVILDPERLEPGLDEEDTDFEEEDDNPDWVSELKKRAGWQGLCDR
From the text: as §1

Sequence of 363 human kinases (including Aurora A/B/C) (Homo sapiens, UniProt Q9H1R3) (Q9H1R3 whole entry): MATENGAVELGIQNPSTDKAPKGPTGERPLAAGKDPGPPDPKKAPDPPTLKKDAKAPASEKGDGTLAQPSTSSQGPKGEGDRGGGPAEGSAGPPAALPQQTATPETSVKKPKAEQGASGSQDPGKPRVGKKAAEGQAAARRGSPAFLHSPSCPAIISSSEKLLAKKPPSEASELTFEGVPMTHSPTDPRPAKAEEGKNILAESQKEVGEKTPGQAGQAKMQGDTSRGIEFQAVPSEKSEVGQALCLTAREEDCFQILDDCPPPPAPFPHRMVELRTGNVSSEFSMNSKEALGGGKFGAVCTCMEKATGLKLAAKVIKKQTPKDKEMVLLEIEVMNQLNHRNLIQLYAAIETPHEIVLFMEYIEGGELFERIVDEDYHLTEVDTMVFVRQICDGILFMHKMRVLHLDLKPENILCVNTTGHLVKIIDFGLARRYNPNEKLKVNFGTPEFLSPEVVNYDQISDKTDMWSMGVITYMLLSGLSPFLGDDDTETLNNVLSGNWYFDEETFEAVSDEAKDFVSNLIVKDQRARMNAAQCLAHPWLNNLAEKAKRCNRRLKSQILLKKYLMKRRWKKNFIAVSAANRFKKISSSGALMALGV
Sequence of 363 human kinases (including Aurora A/B/C) (Homo sapiens, UniProt Q9Y2K2) (Q9Y2K2 whole entry): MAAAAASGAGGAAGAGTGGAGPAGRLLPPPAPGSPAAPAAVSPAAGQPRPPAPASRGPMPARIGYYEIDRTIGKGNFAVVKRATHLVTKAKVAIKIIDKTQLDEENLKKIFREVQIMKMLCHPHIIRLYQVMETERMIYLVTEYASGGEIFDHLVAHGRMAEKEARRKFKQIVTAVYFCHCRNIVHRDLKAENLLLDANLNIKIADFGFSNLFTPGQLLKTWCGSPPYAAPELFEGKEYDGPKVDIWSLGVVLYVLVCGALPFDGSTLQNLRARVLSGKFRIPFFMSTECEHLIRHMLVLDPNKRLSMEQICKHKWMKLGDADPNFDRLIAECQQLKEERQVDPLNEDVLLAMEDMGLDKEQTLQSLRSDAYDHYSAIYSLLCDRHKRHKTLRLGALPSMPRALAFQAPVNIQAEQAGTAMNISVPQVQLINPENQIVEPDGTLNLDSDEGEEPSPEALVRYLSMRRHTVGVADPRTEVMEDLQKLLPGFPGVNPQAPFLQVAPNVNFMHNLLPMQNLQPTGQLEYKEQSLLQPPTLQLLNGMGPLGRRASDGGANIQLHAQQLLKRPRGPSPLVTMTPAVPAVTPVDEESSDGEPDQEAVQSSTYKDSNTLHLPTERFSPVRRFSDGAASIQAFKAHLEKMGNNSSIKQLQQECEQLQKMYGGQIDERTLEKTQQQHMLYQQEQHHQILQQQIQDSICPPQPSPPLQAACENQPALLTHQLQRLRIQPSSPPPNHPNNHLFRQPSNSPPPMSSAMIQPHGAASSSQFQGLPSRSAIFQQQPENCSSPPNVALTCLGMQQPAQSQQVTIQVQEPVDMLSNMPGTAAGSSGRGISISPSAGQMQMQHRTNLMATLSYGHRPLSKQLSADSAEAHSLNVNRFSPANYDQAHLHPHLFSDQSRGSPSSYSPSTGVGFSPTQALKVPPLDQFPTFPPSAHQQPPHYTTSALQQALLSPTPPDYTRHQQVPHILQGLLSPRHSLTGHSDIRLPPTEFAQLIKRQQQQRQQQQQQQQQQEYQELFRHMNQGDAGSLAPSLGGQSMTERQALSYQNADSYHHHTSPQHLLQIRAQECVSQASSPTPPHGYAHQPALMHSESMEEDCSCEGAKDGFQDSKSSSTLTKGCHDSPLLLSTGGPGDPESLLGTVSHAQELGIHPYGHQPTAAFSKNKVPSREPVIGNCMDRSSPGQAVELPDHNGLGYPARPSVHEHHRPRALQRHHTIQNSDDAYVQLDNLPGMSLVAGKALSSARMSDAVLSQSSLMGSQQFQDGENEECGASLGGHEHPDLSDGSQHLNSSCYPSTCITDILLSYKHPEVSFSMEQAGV
Sequence of 363 human kinases (including Aurora A/B/C) (Homo sapiens, UniProt Q9BXA6) (Q9BXA6 whole entry): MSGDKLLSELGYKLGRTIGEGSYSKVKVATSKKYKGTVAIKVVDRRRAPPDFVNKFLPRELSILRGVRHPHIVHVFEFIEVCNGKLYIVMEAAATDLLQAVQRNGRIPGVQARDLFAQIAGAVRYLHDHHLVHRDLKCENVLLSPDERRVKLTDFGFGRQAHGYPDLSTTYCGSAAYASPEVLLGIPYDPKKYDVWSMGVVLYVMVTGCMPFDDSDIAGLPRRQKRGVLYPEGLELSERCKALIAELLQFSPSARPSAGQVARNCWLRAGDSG

Structure (SMILES)	remaining activity at 0.1 µM [1] [%]	remaining activity at 0.5 µM ([1]; 500 nM) [%]	remaining activity at 0.1 µM [2] [%]	remaining activity at 0.5 µM ([2]; 500 nM) [%]	remaining activity at 0.1 µM [3] [%]	remaining activity at 0.5 µM ([3]; 500 nM) [%]	remaining activity at 0.1 µM [4] [%]	remaining activity at 0.5 µM ([4]; 500 nM) [%]	remaining activity at 0.1 µM [5] [%]	remaining activity at 0.5 µM ([5]; 500 nM) [%]	remaining activity at 0.1 µM [6] [%]	remaining activity at 0.5 µM ([6]; 500 nM) [%]	remaining activity at 0.1 µM [7] [%]	remaining activity at 0.5 µM ([7]; 500 nM) [%]	further results
O=C(O)[C@]1(Cc2cccc(Nc3nccs3)n2)CC[C@@H](Oc2cccc(Cl)c2F)CC1 [MK-5108]	95.6	94.5	95.1	104	97.3	103	89.7	99.7	100	112	102	97.8	99.3	101	–
O=C(c1cccc(Cl)c1F)N1CCN(Cc2cccc(Nc3nccs3)n2)CC1 [MK-8745]	–	98.3	–	94.5	–	93.5	–	75.7	–	110	–	94.3	–	100	% Enzyme Activity (relative to DMSO controls) ([1]; 500 nM): 95.49%; % Enzyme Activity (relative to DMSO controls) ([2]; 500 nM): 91.73%; % Enzyme Activity (relative to DMSO controls) ([3]; 500 nM): 91.26%; % Enzyme Activity (relative to DMSO controls) ([4]; 500 nM): 72.05%; % Enzyme Activity (relative to DMSO controls) ([5]; 500 nM): 107.28%; % Enzyme Activity (relative to DMSO controls) ([6]; 500 nM): 94.16%; % Enzyme Activity (relative to DMSO controls) ([7]; 500 nM): 99.14%
CCn1cc(-c2ccnc3[nH]c(-c4cccc(CN(C)C)c4)cc23)c(-c2ccc(NC(=O)N(C)C)cc2)n1 [GSK1070916]	101	–	100	–	87.8	–	105	–	115	–	96.2	–	97.7	–	–
